Here are results for three compounds from PMC8378262 (Journal of controlled release : official journal of the …, 2021).

Data set [1] in a line: Pharmacokinetics in rat plasma after intravenous administration. It is filed as in vivo, Sprague Dawley rats.
Another data set concerns PAH-SMC. The experiment in a line: Antiproliferative effects, Cell Counting Kit-8, PAH-SMC. Format: cell-based, human.
Another data set concerns the target ROCK-II (Homo sapiens, UniProt O75116). As to the kind of experiment: Cell-free Rho-associated kinase activity. Format: biochemical.
Data set [2] deals with T1, bactosomal human NADPH-CYP reductase (Homo sapiens, UniProt P16435).
T1 sequence (P16435 1-677): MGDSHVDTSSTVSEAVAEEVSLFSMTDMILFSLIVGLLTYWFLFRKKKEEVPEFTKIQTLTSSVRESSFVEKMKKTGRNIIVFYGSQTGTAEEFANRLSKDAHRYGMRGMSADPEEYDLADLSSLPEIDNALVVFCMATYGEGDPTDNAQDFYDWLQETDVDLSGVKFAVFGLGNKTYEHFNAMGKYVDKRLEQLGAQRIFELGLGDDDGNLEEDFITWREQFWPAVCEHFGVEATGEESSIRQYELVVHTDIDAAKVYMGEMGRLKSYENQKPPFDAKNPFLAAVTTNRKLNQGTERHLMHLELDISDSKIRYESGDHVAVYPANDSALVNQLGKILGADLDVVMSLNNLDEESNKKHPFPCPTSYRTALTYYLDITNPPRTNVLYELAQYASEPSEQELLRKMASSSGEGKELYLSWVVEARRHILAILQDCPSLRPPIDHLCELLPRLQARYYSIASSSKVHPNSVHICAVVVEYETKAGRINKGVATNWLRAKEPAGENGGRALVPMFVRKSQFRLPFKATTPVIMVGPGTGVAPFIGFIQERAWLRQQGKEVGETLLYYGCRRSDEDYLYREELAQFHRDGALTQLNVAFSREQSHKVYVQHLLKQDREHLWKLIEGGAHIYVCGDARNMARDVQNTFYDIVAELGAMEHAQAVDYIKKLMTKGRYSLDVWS
As to the kind of experiment: Enzymatic reduction assay of FasPRO, LC-MS/MS. It is filed as in vitro ADME.

The subject of a further data set is N-SMC. As to the kind of experiment: Antiproliferative effects, Cell Counting Kit-8, N-SMC. Format: cell-based, human.
Data set [3] relates to cGMP. The experiment in a line: Intracellular cGMP. It is filed as cell-based, human. As to conditions: for intracellular level of cGMP: PAH-SMCs, 0.1–0.001 μM.
Another data set deals with PAH-EC. As to the kind of experiment: cells. It is filed as cell-based. The settings on record: Homo sapiens, 24 h.
Another data set relates to PAH-ECs. As to the kind of experiment: Bioreduction of FasPRO in cultured PAH-ECs. It is filed as cell-based, human. The settings on record: 24 h incubation.
The next data set relates to PAH-SMCs. The experiment in a line: Bioreduction of FasPRO in cultured PAH-SMCs. Format: cell-based, human.
Data set [4] deals with phospho-MYPT1. The experiment in a line: Myosin phosphatase-targeting protein phosphorylation. It is filed as cell-based, human. As to conditions: PAH-SMCs, 1.0 μM, 24 h.
Data set [5] concerns phospho-MYPT1. Described as above. It is filed as cell-based, human. As to conditions: PAH-ECs, 1.0 μM.
Data set [6] concerns cGMP. The experiment in a line: Intracellular cGMP. The settings on record: PAH-ECs. Format: cell-based, human.
Where [7] appears, read: Homo sapiens, 24 h, read-out: N-SMC (IC50) Normoxia.
[8] abbreviates: read-out: PAH-EC (IC50) Hypoxia.
Where [9] appears, read: read-out: PAH-EC (IC50) Normoxia.
Setting [10] is: male, Sprague-Dawley, rat, plasma, iv, 3 mg/kg.
Where [11] appears, read: Homo sapiens, 24 h, read-out: PAH-SMC (IC50) Normoxia, normoxia, 24 h treatment.

Molecules are shown by their SMILES. Several values for one entry are separate records, joined by “and”; a condition that tells them apart may be missing. Identical values can stand only once. Like-named read-outs stand apart in the source and are kept apart here.

Sequence of ROCK-II (O75116 whole entry, species assumed): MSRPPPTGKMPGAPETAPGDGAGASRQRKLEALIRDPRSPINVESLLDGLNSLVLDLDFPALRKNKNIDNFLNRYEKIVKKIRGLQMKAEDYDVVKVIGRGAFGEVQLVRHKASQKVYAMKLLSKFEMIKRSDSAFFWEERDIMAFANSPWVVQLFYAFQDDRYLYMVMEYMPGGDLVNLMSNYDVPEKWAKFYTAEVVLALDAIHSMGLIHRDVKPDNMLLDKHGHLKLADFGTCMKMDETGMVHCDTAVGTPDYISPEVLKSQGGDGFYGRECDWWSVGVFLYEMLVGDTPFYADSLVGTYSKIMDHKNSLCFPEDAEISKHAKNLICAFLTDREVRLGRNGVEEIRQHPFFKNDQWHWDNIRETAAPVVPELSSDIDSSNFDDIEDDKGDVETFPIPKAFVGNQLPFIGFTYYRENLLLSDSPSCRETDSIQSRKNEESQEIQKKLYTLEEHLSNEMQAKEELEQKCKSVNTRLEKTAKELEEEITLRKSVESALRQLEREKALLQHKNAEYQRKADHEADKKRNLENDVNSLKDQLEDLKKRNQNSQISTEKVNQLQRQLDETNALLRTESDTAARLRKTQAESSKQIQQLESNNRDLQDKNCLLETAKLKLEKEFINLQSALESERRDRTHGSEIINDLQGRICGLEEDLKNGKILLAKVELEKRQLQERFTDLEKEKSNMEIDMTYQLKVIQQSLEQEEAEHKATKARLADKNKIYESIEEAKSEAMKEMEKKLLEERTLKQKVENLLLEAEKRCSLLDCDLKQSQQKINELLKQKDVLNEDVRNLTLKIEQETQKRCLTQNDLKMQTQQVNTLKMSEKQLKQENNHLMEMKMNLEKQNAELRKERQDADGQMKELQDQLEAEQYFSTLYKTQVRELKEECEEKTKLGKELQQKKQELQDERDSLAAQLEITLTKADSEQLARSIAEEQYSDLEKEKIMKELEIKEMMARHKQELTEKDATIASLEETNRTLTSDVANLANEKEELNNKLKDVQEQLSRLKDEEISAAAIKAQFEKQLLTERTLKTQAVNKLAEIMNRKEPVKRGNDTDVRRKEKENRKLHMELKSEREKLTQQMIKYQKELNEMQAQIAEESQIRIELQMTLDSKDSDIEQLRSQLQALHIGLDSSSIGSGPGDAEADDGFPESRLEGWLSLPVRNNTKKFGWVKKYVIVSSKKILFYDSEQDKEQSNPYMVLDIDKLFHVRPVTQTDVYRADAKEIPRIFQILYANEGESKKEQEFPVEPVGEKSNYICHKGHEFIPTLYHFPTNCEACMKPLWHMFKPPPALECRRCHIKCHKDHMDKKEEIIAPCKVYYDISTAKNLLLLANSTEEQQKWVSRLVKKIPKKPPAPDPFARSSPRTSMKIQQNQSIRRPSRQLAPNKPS

As for `O=c1[nH]ccc2c(S(=O)(=O)N3CCCNCC3)cccc12` [FasOH, reference compound], the “maximum plasma concentration (Cmax) of FasOH as share of that of the parent drug” value in [1] (rats given intravenous fasudil 3 mg/kg) is recorded as 37~52%. The IC50 in the data set on PAH-SMC (Homo sapiens, 24 h, read-out: PAH-SMC (IC50) Hypoxia) amounted to 10.3 ± 2.6 µM; with PAH-SMC (Homo sapiens, 24 h, read-out: PAH-SMC (IC50) Normoxia), 6.9 µM. For the same compound, on ROCK-II (1.0 mU ROCK-II, 10 μM ATP), the “inhibition of the kinase activity of ROCK-II (comparison in words)” value is reported as “equal potency”.
On to `O=[N+]([O-])c1ccc(COc2nccc3c(S(=O)(=O)N4CCCNCC4)cccc23)cc1` [FasPRO, 5-((1,4-diazepan-1-yl)sulfonyl)-1-((4-nitrobenzyl)oxy)isoquinoline], for which the “prodrug converted into FasOH or fasudil” value in data set [2] (hypoxia (0.1% O2), after 24 h of reaction) is on record as “More than 60%”. In [2] (normoxia, any of the time points), the “reduction of FasPRO by the reductase” value was “did not occur”. In addition, the IC50 in the data set with N-SMC (Homo sapiens, 24 h, read-out: N-SMC (IC50) Hypoxia) was determined as 1.04 ± 0.1 µM; in the data set on N-SMC (setting [7]), 248 ± 28.9 µM; with PAH-EC (setting [8]), 25.4 ± 4.8 µM; in the data set on PAH-EC (setting [9]) it was 2720 ± 50.9 µM; in the data set on PAH-SMC (setting [11]) it was 53.5 µM. Also, the “intracellular level of cGMP” value in the data set with cGMP [3] (hypoxia) is recorded as “dose-dependently increased”; with cGMP [3] (normoxia) it was “did not improve cGMP secretion”; in the data set with cGMP [6] (hypoxia), “dose-dependently increased”; in the data set on cGMP [6] (normoxia), “did not improve cGMP secretion”. For the same compound, the “terminal half-life of FasPRO relative to that of fasudil” value in [1] (Sprague-Dawley rats, intravenous, 3 mg/kg) was 36 fold and ~ 36 fold. Also, the AUC(0-inf) in [1] (setting [10]) was found to be 951 ± 137 ng·h/mL. In [1] (setting [10]), this compound showed a C0 of 471 ± 122 ng/mL. In data set [1] (setting [10]), the Vd was 10.1 ± 4 L/kg. The compound also gave a clearance in data set [1] (setting [10]) of 18.3 mL/min/kg. In addition, in data set [1] (male, Sprague-Dawley, rat, plasma, iv, 3 mg/kg, t1/2, Sprague-Dawley rats), the half-life was above 7 h. Further, the “fasudil in the blood of FasPRO-treated rats” value in [1] (remaining two of four rats, FasPRO iv 3 mg/kg) was “not detectable”. For the same compound, the “concentrations at which an antiproliferative effect was observed” value in the data set on PAH-SMC (normoxia, cells not given) was above 100 µM. Moreover, the “content of FasPRO in cells” value with PAH-ECs (hypoxia, versus normoxia) is “decreased”; in the data set on PAH-SMCs (hypoxia, 24 h incubation, versus normoxia) it was “decreased”. Moreover, the “fragmentation of FasPRO in cells” value with PAH-ECs (normoxia) was “did not undergo significant fragmentation”; in the data set on PAH-SMCs (normoxia, 24 h incubation) it was “did not undergo significant fragmentation”. In addition, the “reduction in ROCK-II kinase activity on addition of the 4-nitrobenzyl group to the hydroxyl group of FasOH” value on ROCK-II (relative to FasOH) is on record as 15 fold. Besides, the “activation of FasPRO” value is “activated” in the data set with PAH-SMCs (0.1% O2); “not at 1% and 10% O2” in the data set on PAH-SMCs (1% and 10% O2). Further, the “fragments of FasPRO after bioreduction in cell lysate” value in the data set with PAH-SMCs (12 h, hypoxia) was “FasOH (major fragment) or fasudil (minor fragment)”. Besides, the “hypoxia-driven phosphorylation of MYPT1” value in the data set with phospho-MYPT1 [4] and in the data set with phospho-MYPT1 [5] was “reversed the process” each time. Further, the phospho-MYPT-1 level entry in the data set on phospho-MYPT1 [4] (normoxia) and with phospho-MYPT1 [5] (normoxia) was “did not cause any changes” throughout.
Consider `O=S(=O)(c1cccc2cnccc12)N1CCCNCC1` [Fasudil, reference compound], for which the IC50 stood at 2.8 ± 0.6 µM in the data set with N-SMC (setting [7]); 1.68 ± 0.5 µM in the data set on N-SMC (read-out: N-SMC (IC50) Hypoxia, hypoxia (0.1% O2), 24 h treatment); 34.1 ± 5.9 µM in the data set on PAH-EC (setting [8]); 16 ± 1.2 µM in the data set on PAH-EC (setting [9]); 4.9 µM with PAH-SMC (setting [11]); 4.95 ± 1.3 µM with PAH-SMC (read-out: PAH-SMC (IC50) Normoxia, normoxia, 24 h treatment). The “intracellular level of cGMP” value in the data set with cGMP [3] (hypoxia), in the data set with cGMP [3] (normoxia), in the data set on cGMP [6] (hypoxia) and in the data set on cGMP [6] (normoxia) was “dose-dependently increased” throughout. Besides, the “increase in cGMP levels in PAH-SMCs compared to PAH-ECs” value in the data set with cGMP [3] (fasudil preincubation) came out at 5 fold. Also, the AUC(0-inf) in [1] (setting [10]) is 363 ± 54.1 ng·h/mL. In data set [1] (setting [10]), this compound registered a C0 of 1360 ± 368 ng/mL. This compound also yielded a Vd in data set [1] (setting [10]) of 0.9 ± 0.2 L/kg. In addition, the clearance in [1] (setting [10]) is 46.7 mL/min/kg. Further, the “hypoxia-driven phosphorylation of MYPT1” value in the data set with phospho-MYPT1 [4] and in the data set on phospho-MYPT1 [5] was “reversed the process” in each case.
